From ChEMBL document CHEMBL4138123, “Design, synthesis and biological evaluation of novel pyrazolochalcones as potential modulators of PI3K/Akt/mTOR pathway and inducers of apoptosis in breast cancer cells” (Eur J Med Chem, 2017)

What was measured:
[1] = test system: MDA-MB-231; test: Cytotoxicity against human MDA-MB-231 cells assessed as cell growth at 100 uM after 48 hrs by sulforhodamine B assay relative to control; type: functional; settings: MDA-MB-231, 48 h, read-out: Activity
[2] = test system: NCI/ADR-RES; test: Cytotoxicity against human NCI/ADR-RES cells assessed as cell growth at 10 uM after 48 hrs by sulforhodamine B assay relative to control; type: functional; settings: read-out: Activity
[3] = test system: 786-0; test: Cytotoxicity against human 786-0 cells assessed as cell growth at 0.1 uM after 48 hrs by sulforhodamine B assay relative to control; type: functional; settings: 786-0, 48 h, read-out: Activity
[4] = test system: A549; test: Cytotoxicity against human A549/ATCC cells assessed as cell growth at 1 uM after 48 hrs by sulforhodamine B assay relative to control; type: functional; settings: A549, 48 h, read-out: Activity
[5] = test system: MDA-MB-231; test: Cytotoxicity against human MDA-MB-231 cells assessed as growth inhibition after 48 hrs by MTT assay; type: functional, cell-based; settings: MDA-MB-231, 48 h
[6] = test system: A498; test: Cytotoxicity against human A498 cells assessed as cell growth at 10 uM after 48 hrs by sulforhodamine B assay relative to control; type: functional; settings: A498, 48 h, read-out: Activity
[7] = test system: TK-10; test: Cytotoxicity against human TK10 cells assessed as cell growth at 10 uM after 48 hrs by sulforhodamine B assay relative to control; type: functional; settings: TK-10, 48 h, read-out: Activity
[8] = test system: MOLT-4; test: Cytotoxicity against human MOLT4 cells assessed as cell growth at 1 uM after 48 hrs by sulforhodamine B assay relative to control; type: functional; settings: MOLT-4, 48 h, read-out: Activity
[9] = test system: ACHN; test: Cytotoxicity against human ACHN cells assessed as cell growth at 0.01 uM after 48 hrs by sulforhodamine B assay relative to control; type: functional; settings: read-out: Activity
[10] = test system: PC-3; test: Cytotoxicity against human PC3 cells assessed as cell growth at 1 uM after 48 hrs by sulforhodamine B assay relative to control; type: functional; settings: PC-3, 48 h, read-out: Activity
[11] = test system: SN12C; test: Cytotoxicity against human SN12C cells assessed as cell growth at 10 uM after 48 hrs by sulforhodamine B assay relative to control; type: functional; settings: read-out: Activity
[12] = test system: SR; test: Cytotoxicity against human SR cells assessed as cell growth at 1 uM after 48 hrs by sulforhodamine B assay relative to control; type: functional; settings: read-out: Activity
[13] = test system: UACC-62; test: Cytotoxicity against human UACC62 cells assessed as cell growth at 1 uM after 48 hrs by sulforhodamine B assay relative to control; type: functional; settings: UACC-62, 48 h, read-out: Activity
[14] = test system: NCI-H23; test: Cytotoxicity against human NCI-H23 cells assessed as cell growth at 0.1 uM after 48 hrs by sulforhodamine B assay relative to control; type: functional; settings: NCI-H23, 48 h, read-out: Activity
[15] = test system: IGROV-1; test: Cytotoxicity against human IGROV1 cells assessed as cell growth at 10 uM after 48 hrs by sulforhodamine B assay relative to control; type: functional; settings: IGROV-1, 48 h, read-out: Activity
[16] = test system: SK-OV-3; test: Cytotoxicity against human SKOV3 cells assessed as cell growth at 1 uM after 48 hrs by sulforhodamine B assay relative to control; type: functional; settings: SK-OV-3, 48 h, read-out: Activity
[17] = test system: HOP-62; test: Cytotoxicity against human HOP62 cells assessed as cell growth at 0.1 uM after 48 hrs by sulforhodamine B assay relative to control; type: functional; settings: HOP-62, 48 h, read-out: Activity
[18] = test system: HL-60(TB); test: Cytotoxicity against human HL-60(TB) cells assessed as growth inhibition after 48 hrs by sulforhodamine B assay; type: functional; settings: HL-60, 48 h
[19] = test system: HL-60(TB); test: Cytotoxicity against human HL-60(TB) cells assessed as cell growth at 10 uM after 48 hrs by sulforhodamine B assay relative to control; type: functional; settings: HL-60, 48 h, read-out: Activity
[20] = test system: PC-3; test: Cytotoxicity against human PC3 cells assessed as cell growth at 0.01 uM after 48 hrs by sulforhodamine B assay relative to control; type: functional; settings: PC-3, 48 h, read-out: Activity
[21] = test system: SF-539; test: Cytotoxicity against human SF539 cells assessed as growth inhibition after 48 hrs by sulforhodamine B assay; type: functional; settings: SF-539, 48 h
[22] = test system: RXF 393; test: Cytotoxicity against human RXF393 cells assessed as cell growth at 1 uM after 48 hrs by sulforhodamine B assay relative to control; type: functional; settings: RXF 393, 48 h, read-out: Activity
[23] = test system: SK-MEL-5; test: Cytotoxicity against human SK-MEL-5 cells assessed as cell growth at 100 uM after 48 hrs by sulforhodamine B assay relative to control; type: functional; settings: SK-MEL-5, 48 h, read-out: Activity
[24] = test system: DU-145; test: Cytotoxicity against human DU145 cells assessed as cell growth at 0.01 uM after 48 hrs by sulforhodamine B assay relative to control; type: functional; settings: DU-145, 48 h, read-out: Activity
[25] = test system: NCI-H460; test: Cytotoxicity against human NCI-H460 cells assessed as growth inhibition after 48 hrs by sulforhodamine B assay; type: functional; settings: NCI-H460, 48 h
[26] = test system: 786-0; test: Cytotoxicity against human 786-0 cells assessed as cell growth at 100 uM after 48 hrs by sulforhodamine B assay relative to control; type: functional; settings: 786-0, 48 h, read-out: Activity
[27] = test system: SK-MEL-28; test: Cytotoxicity against human SK-MEL-28 cells assessed as cell growth at 1 uM after 48 hrs by sulforhodamine B assay relative to control; type: functional; settings: SK-MEL-28, 48 h, read-out: Activity
[28] = test system: MOLT-4; test: Cytotoxicity against human MOLT4 cells assessed as cell growth at 10 uM after 48 hrs by sulforhodamine B assay relative to control; type: functional; settings: MOLT-4, 48 h, read-out: Activity
[29] = test system: SK-MEL-28; test: Cytotoxicity against human SK-MEL-28 cells assessed as growth inhibition after 48 hrs by sulforhodamine B assay; type: functional; settings: SK-MEL-28, 48 h
[30] = test system: SN12C; test: Cytotoxicity against human SN12C cells assessed as cell growth at 0.01 uM after 48 hrs by sulforhodamine B assay relative to control; type: functional; settings: read-out: Activity
[31] = test system: UACC-257; test: Cytotoxicity against human UACC257 cells assessed as cell growth at 1 uM after 48 hrs by sulforhodamine B assay relative to control; type: functional; settings: UACC-257, 48 h, read-out: Activity
[32] = test system: IGROV-1; test: Cytotoxicity against human IGROV1 cells assessed as growth inhibition after 48 hrs by sulforhodamine B assay; type: functional; settings: IGROV-1, 48 h
[33] = test system: SK-MEL-28; test: Cytotoxicity against human SK-MEL-28 cells assessed as cell growth at 10 uM after 48 hrs by sulforhodamine B assay relative to control; type: functional; settings: SK-MEL-28, 48 h, read-out: Activity
[34] = test system: HOP-62; test: Cytotoxicity against human HOP62 cells assessed as cell growth at 10 uM after 48 hrs by sulforhodamine B assay relative to control; type: functional; settings: HOP-62, 48 h, read-out: Activity
[35] = test system: UACC-257; test: Cytotoxicity against human UACC257 cells assessed as cell growth at 0.01 uM after 48 hrs by sulforhodamine B assay relative to control; type: functional; settings: UACC-257, 48 h, read-out: Activity
[36] = test system: CCRF-CEM; test: Cytotoxicity against human CCRF-CEM cells assessed as cell growth at 0.1 uM after 48 hrs by sulforhodamine B assay relative to control; type: functional; settings: read-out: Activity

COc1ccc(C(=O)/C=C/c2cc(-c3cc(OC)c(OC)c(OC)c3)n[nH]2)cc1
growth at 100 µM [1]: 19%
growth at 10 µM [2]: -1%
growth at 0.1 µM [3]: 96%
growth at 1 µM [4]: 86%
IC50 [5]: 0.95 µM
growth at 10 µM [6]: -57%
growth at 10 µM [7]: -29%
growth at 1 µM [8]: 102%
growth at 0.01 µM [9]: 102%
growth at 1 µM [10]: 76%
growth at 10 µM [11]: -69%
growth at 1 µM [12]: 22%
growth at 1 µM [13]: 95%
growth at 0.1 µM [14]: 92%
growth at 10 µM [15]: -47%
growth at 1 µM [16]: 98%
growth at 0.1 µM [17]: 102%
LC50 [18]: > 100 µM
TGI [18]: 4.78 µM
growth at 10 µM [19]: -47%
growth at 0.01 µM [20]: 99%
GI50 [21]: 1.62 µM
LC50 (concentration killing 50% of cells) [21]: 5.85 µM
TGI [21]: 3.08 µM
growth at 1 µM [22]: 67%
growth at 100 µM [23]: -93%
growth at 0.01 µM [24]: 102%
LC50 [25]: 8.18 µM
TGI [25]: 3.75 µM
growth at 100 µM [26]: -48%
growth at 1 µM [27]: 101%
growth at 10 µM [28]: -20%
LC50 [29]: 9.23 µM
TGI [29]: 4.42 µM
growth at 0.01 µM [30]: 99%
growth at 1 µM [31]: 87%
LC50 [32]: > 100 µM
TGI [32]: 4.81 µM
growth at 10 µM [33]: -55%
growth at 10 µM [34]: -64%
growth at 0.01 µM [35]: 97%
growth at 0.1 µM [36]: 98%

COc1cc(C(=O)/C=C/c2cc(-c3ccc4c(c3)OCO4)n[nH]2)cc(OC)c1OC
growth at 100 µM [1]: -97%
growth at 10 µM [2]: 2%
growth at 0.1 µM [3]: 98%
growth at 1 µM [4]: 85%
IC50 [5]: 1.2 µM
growth at 10 µM [6]: -39%
growth at 10 µM [7]: -18%
growth at 1 µM [8]: 94%
growth at 0.01 µM [9]: 102%
growth at 1 µM [10]: 71%
growth at 10 µM [11]: -23%
growth at 1 µM [12]: 56%
growth at 1 µM [13]: 89%
growth at 0.1 µM [14]: 93%
growth at 10 µM [15]: -26%
growth at 1 µM [16]: 107%
growth at 0.1 µM [17]: 95%
GI50 [18]: 2.17 µM
LC50 [18]: > 100 µM
TGI [18]: 6.49 µM
growth at 10 µM [19]: -20%
growth at 0.01 µM [20]: 97%
GI50 [21]: 1.33 µM
LC50 (concentration killing 50% of cells) [21]: 6.65 µM
TGI [21]: 2.98 µM
growth at 1 µM [22]: 67%
growth at 100 µM [23]: -97%
growth at 0.01 µM [24]: 102%
GI50 [25]: 1.81 µM
LC50 [25]: 7.84 µM
TGI [25]: 3.77 µM
growth at 100 µM [26]: -83%
growth at 1 µM [27]: 92%
growth at 10 µM [28]: -8%
GI50 [29]: 1.92 µM
LC50 [29]: 9.13 µM
TGI [29]: 4.18 µM
growth at 0.01 µM [30]: 98%
growth at 1 µM [31]: 96%
GI50 [32]: 1.99 µM
LC50 [32]: 23.4 µM
TGI [32]: 5.72 µM
growth at 10 µM [33]: -56%
growth at 10 µM [34]: -24%
growth at 0.01 µM [35]: 98%
growth at 0.1 µM [36]: 98%
